{"source": "paper PMC5567672", "about": "(Neuropharmacology, 2016)", "key": {"rodents": {"tested_on": "rodents", "conditions": "ref Jenck et al., 1997, 2000; cited from earlier work"}, "NOP(−/−) mice": {"tested_on": "NOP(−/−) mice", "test": "Elevated plus maze", "type": "in vivo, mouse", "conditions": "Ro 65–6570 0.1 mg/kg, i.p.; 8–10 mice per group"}, "NOP(+/+) mice": {"tested_on": "NOP(+/+) mice", "test": "Elevated plus maze", "type": "in vivo, mouse", "conditions": "Ro 65–6570 0.1 mg/kg, i.p.; 8–10 mice per group"}, "mice [1]": {"tested_on": "mice"}, "mice [2]": {"tested_on": "mice", "test": "Forced swim test", "type": "in vivo, mouse", "conditions": "for FST activity (Table 1 summary): in vivo, mice"}, "mice [3]": {"tested_on": "mice", "test": "Elevated plus maze", "type": "in vivo, mouse", "conditions": "for EPM activity (Table 1 summary): in vivo, mice"}, "[4]": {"target": "T1, NOP/β-arrestin 2 interaction (NOP receptor) (Homo sapiens, UniProt P41146)", "T1 sequence (P41146 whole entry)": "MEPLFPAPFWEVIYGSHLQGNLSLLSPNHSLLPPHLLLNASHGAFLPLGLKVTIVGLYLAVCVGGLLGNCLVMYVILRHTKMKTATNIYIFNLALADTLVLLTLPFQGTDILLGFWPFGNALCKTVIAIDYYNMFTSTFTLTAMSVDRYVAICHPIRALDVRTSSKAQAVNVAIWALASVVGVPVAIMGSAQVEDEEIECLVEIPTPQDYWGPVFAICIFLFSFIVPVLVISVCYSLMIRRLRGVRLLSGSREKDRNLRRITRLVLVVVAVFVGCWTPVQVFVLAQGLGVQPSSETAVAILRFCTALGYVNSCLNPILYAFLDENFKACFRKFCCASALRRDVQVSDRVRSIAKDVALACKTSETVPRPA", "test": "BRET assay, NOP/β-arrestin 2 interaction", "type": "cell-based", "conditions": "relative to N/OFQ"}, "[5]": {"target": "T1, NOP/β-arrestin 2 interaction (NOP receptor)", "conditions": "ref Malfacini et al., 2015, cited from earlier work; for antagonism of N/OFQ stimulated NOP/β-arrestin 2 interaction: against N/OFQ"}, "[6]": {"target": "T2, NOP/G-protein interaction (NOP receptor) (Homo sapiens, UniProt P41146)", "T2 sequence (P41146 whole entry)": "as above", "conditions": "2015, cited from earlier work; for antagonism of N/OFQ effects, NOP/G protein / rank order of antagonist potency, NOP/G protein: against N/OFQ, ref Camarda et al., 2009, Malfacini et al."}, "[7]": {"target": "T2, NOP/G-protein interaction (NOP receptor)", "type": "biochemical"}, "β-arrestin 2(−/−) mice [8]": {"tested_on": "β-arrestin 2(−/−) mice", "conditions": "chronic treatment, various assays; ref David et al., 2009; cited from earlier work"}, "β-arrestin 2(−/−) mice [9]": {"tested_on": "β-arrestin 2(−/−) mice", "conditions": "ref Beaulieu et al., 2008, David et al., 2009; cited from earlier work"}, "wild type mice": {"tested_on": "wild type mice", "conditions": "ref Beaulieu et al., 2008; cited from earlier work"}, "animals": {"tested_on": "animals", "conditions": "ref Post et al. in press; cited from earlier work"}, "patients": {"tested_on": "patients", "conditions": "ref Post et al. in press; cited from earlier work"}}, "note": "Read-outs that look alike come from different tables or passages of the source."}
{"compound": "O=C1NCN(c2ccccc2)C12CCN([C@@H]1CC[C@H]3CCCc4cccc1c43)CC2", "note": "[Ro64–6198]", "values": [{"measurement": "anxiolytic-like effects", "setting": "rodents", "value": "produce anxiolytic-like effects"}]}
{"compound": "O=C1NCN(c2ccccc2)C12CCN(C1Cc3cccc4cccc1c34)CC2", "note": "(stereo not shown) [Ro 65–6570]", "values": [{"measurement": "anxiolytic-like effect, NOP(−/−) mice", "setting": "NOP(−/−) mice", "value": "not NOP(−/−) mice"}, {"measurement": "anxiolytic-like effect, NOP(+/+) mice", "setting": "NOP(+/+) mice", "value": "evident in NOP(+/+)"}, {"measurement": "motor impairment in the rotarod test", "setting": "mice [1]; mouse, in vivo", "value": "did not produce any motor impairment"}, {"measurement": "immobility time", "setting": "mice [2]; Ro 65–6570 0.1 mg/kg, i.p., 30 min prior, CD-1 mice, 11–16 per group", "value": "had no effect"}, {"measurement": "FST activity (Table 1 summary)", "setting": "mice [2]", "value": "inactive"}, {"measurement": "time spent in and number of entries in the open arms", "setting": "mice [3]; Ro 65–6570 0.01–0.1 mg/kg, i.p., 30 min prior, CD-1 mice, 12–16 per group", "value": "increased in a dose-dependent manner"}, {"measurement": "EPM activity (Table 1 summary)", "setting": "mice [3]", "value": "anxiolytic"}]}
{"compound": "[Nphe 1, Arg 14, Lys 15]N/OFQ-NH 2 [UFP-101]", "values": [{"measurement": "stimulation of NOP/β-arrestin 2 interaction (in words)", "setting": "[4]", "value": "inactive"}, {"measurement": "antagonism of N/OFQ stimulated NOP/β-arrestin 2 interaction", "setting": "[5]", "value": "able to antagonize"}, {"measurement": "antagonism of N/OFQ effects, NOP/G protein", "setting": "[6]", "value": "antagonized N/OFQ effects showing a competitive type of interaction"}, {"measurement": "rank order of antagonist potency, NOP/G protein", "setting": "[6]", "value": "SB-612111 > UFP-101"}, {"measurement": "stimulation of NOP/G-protein interaction (in words)", "setting": "[7]", "value": "inactive"}, {"measurement": "FST activity (Table 1 summary)", "setting": "mice [2]", "value": "antidepressant"}, {"measurement": "EPM activity (Table 1 summary)", "setting": "mice [3]", "value": "inactive"}]}
{"compound": "CNCCC(Oc1ccc(C(F)(F)F)cc1)c1ccccc1", "note": "(stereo not shown) [fluoxetine]", "values": [{"measurement": "anxiolytic-like effects in β-arrestin 2(−/−) mice", "setting": "β-arrestin 2(−/−) mice [8]", "value": "failed to induce anxiolytic-like effects"}, {"measurement": "antidepressant effects, tail suspension test", "setting": "β-arrestin 2(−/−) mice [9]", "value": "did not evoke antidepressant effects"}]}
{"compound": "Cc1cccc2c1CC[C@H](CN1CCC(c3c(Cl)cccc3Cl)CC1)C[C@@H]2O", "note": "[SB-612111, (−)-cis-1-methyl-7-[[4-(2,6-dichlorophenyl)piperidin-1-yl]methyl]-6,7,8,9-tetrahydro-5H-benzocyclohepten-5-ol]", "values": [{"measurement": "antagonism of N/OFQ stimulated NOP/β-arrestin 2 interaction", "setting": "[5]", "value": "able to antagonize"}, {"measurement": "pharmacological activity, β-arrestin (Table 1 summary), previously obtained", "setting": "[5]; in vitro, β-arrestin", "value": "antagonist"}, {"measurement": "antagonism of N/OFQ effects, NOP/G protein", "setting": "[6]", "value": "antagonized N/OFQ effects showing a competitive type of interaction"}, {"measurement": "rank order of antagonist potency, NOP/G protein", "setting": "[6]", "value": "SB-612111 > UFP-101"}, {"measurement": "pharmacological activity, G protein (Table 1 summary), previously obtained", "setting": "[6]; in vitro, G protein, ref Malfacini et al.", "value": "antagonist"}, {"measurement": "FST activity (Table 1 summary)", "setting": "mice [2]", "value": "antidepressant"}, {"measurement": "behavior in the EPM, per se", "setting": "mice [3]; SB-612111 10 mg/kg, i.p., 30 min, CD-1 mice, 10–12 per group", "value": "did not modify per se the mouse behavior"}, {"measurement": "block of the anxiolytic-like effects of Ro 65–6570", "setting": "mice [3]; SB-612111 10 mg/kg, i.p., 30 min pre-treatment, against Ro 65–6570 0.1 mg/kg i.p., CD-1 mice", "value": "completely block"}, {"measurement": "EPM activity (Table 1 summary)", "setting": "mice [3]", "value": "inactive"}]}
{"compound": "[Li]", "note": "[lithium]", "values": [{"measurement": "latency to cross, light/dark test, wild type", "setting": "wild type mice", "value": "reduces the latency to cross in wild type"}, {"measurement": "antidepressant effects, tail suspension test", "setting": "β-arrestin 2(−/−) mice [9]", "value": "did not evoke antidepressant effects"}]}
{"compound": "CC(C)[C@H]1CC[C@@H](N2CCC(N3C(=O)C(=O)c4ccccc43)CC2)CC1", "note": "[AT-090, 1-(1-(cis-4-isopropylcyclohexyl)piperidin-4-yl)indoline-2,3-dione]", "values": [{"measurement": "motor impairment in the rotarod test", "setting": "mice [1]; AT-090 at the higher dose tested, i.p., Fig. S1", "value": "did not evoke any motor impairment"}]}
{"compound": "Cc1nn(-c2ncccc2CO)cc1CN1CCC2(CC1)OCC(F)(F)c1cc(Cl)sc12", "note": "[LY2940094]", "values": [{"measurement": "antidepressant effects, animals", "setting": "animals", "value": "robust antidepressant effects"}, {"measurement": "antidepressant effects, patients", "setting": "patients", "value": "robust antidepressant effects"}]}
